According to US20100137449A1, “SUBSTITUTED 1,3-CYCLOPENTADIONE MULTI-TARGET PROTEIN KINASE MODULATORS OF CANCER, ANGIOGENESIS AND THE INFLAMMATORY PATHWAYS ASSOCIATED THEREWITH” (METAPROTEOMICS, LLC, priority 2007, published 2010):

Assays:
Test in all cases: KinaseProfiler Assay
[1] = target: MST3(h) (Homo sapiens, UniProt Q9Y6E0)
[2] = target: Ret(V804M)(h) (Homo sapiens, UniProt P07949, V804M)
[3] = target: TrkA(h) (Homo sapiens, UniProt P04629)
[4] = target: SIK(h) (Homo sapiens, UniProt P57059)
[5] = target: PKCα(h) (Homo sapiens, UniProt P17252)
[6] = target: P70S6K(h) (Homo sapiens, UniProt P23443)
[7] = target: Fgr(h) (Homo sapiens, UniProt P09769)
[8] = target: T1, EphA8(h) (Homo sapiens, UniProt P29322)
T1 sequence (P29322 28-1005): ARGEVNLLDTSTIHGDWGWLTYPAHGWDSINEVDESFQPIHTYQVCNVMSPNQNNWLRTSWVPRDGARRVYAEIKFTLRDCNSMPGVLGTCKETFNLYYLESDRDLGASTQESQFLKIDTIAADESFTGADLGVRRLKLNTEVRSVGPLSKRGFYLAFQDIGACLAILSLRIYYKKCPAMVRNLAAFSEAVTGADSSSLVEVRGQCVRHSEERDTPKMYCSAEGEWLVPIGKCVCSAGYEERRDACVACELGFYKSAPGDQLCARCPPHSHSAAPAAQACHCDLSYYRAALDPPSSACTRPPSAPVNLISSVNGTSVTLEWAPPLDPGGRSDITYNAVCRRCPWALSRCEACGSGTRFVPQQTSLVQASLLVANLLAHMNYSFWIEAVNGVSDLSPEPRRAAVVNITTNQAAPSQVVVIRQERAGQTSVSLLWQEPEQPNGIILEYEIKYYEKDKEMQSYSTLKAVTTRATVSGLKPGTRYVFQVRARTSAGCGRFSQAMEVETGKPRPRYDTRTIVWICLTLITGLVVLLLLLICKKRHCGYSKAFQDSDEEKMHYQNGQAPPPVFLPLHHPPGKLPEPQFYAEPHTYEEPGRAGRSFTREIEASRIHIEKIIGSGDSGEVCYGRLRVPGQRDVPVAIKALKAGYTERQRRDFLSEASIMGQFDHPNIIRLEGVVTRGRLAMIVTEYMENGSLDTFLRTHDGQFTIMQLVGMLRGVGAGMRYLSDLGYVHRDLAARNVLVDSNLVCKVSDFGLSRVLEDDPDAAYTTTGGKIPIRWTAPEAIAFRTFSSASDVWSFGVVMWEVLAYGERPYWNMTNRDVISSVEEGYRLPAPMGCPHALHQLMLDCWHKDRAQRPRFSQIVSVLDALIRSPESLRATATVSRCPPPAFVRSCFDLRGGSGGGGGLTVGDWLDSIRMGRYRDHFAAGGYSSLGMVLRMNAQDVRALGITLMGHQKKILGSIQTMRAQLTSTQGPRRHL

[9] = target: T2, SAPK3(h) (Homo sapiens, UniProt P53778)
T2 sequence (P53778 1-367): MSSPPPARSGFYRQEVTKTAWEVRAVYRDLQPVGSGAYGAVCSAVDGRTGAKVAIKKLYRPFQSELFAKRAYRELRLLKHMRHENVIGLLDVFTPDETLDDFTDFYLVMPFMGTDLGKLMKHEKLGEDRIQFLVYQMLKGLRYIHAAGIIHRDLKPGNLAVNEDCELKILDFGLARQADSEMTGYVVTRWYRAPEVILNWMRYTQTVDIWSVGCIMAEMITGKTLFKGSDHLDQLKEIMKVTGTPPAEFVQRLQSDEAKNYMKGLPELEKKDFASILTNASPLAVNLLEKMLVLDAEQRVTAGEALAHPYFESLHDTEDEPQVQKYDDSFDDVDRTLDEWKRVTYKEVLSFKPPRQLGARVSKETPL

Sequence of MST3(h) (Q9Y6E0 whole entry): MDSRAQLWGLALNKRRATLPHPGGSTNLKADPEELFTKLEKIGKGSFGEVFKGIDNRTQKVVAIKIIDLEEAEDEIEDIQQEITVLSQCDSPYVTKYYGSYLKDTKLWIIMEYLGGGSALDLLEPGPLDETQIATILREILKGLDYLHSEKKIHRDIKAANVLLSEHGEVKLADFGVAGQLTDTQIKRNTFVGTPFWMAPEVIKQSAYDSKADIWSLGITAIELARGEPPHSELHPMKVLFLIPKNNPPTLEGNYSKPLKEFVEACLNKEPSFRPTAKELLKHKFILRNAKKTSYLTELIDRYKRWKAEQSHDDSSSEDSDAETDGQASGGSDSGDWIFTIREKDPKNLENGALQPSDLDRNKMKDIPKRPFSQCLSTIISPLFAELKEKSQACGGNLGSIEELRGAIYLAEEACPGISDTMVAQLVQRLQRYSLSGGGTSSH
Sequence of Fgr(h) (P09769 whole entry): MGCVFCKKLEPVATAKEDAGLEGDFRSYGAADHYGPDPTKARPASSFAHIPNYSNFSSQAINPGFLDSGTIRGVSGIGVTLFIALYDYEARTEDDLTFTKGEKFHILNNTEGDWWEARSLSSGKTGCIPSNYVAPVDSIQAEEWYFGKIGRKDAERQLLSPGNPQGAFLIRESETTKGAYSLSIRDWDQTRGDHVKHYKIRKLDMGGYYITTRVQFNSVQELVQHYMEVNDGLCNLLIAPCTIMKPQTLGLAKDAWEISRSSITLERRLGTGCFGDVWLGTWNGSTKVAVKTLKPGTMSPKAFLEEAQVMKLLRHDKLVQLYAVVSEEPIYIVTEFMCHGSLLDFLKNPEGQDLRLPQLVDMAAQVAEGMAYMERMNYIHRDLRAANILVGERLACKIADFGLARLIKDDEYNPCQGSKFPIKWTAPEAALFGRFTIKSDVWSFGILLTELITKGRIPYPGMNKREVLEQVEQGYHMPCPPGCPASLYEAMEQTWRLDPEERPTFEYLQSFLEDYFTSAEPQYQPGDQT
Sequence of P70S6K(h) (P23443 whole entry): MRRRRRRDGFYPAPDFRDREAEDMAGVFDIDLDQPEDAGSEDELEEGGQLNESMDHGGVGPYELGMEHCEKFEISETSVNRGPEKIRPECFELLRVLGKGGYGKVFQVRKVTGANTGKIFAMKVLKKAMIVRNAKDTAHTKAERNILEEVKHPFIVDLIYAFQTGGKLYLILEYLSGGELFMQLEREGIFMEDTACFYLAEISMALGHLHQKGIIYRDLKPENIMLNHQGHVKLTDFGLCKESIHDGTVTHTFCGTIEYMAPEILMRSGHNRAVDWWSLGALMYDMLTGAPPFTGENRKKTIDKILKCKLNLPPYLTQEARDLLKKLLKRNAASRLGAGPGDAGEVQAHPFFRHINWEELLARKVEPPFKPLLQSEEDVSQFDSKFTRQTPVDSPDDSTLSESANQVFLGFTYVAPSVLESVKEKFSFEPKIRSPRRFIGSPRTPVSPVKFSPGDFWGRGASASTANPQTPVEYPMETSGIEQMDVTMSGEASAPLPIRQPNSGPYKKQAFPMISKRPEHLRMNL
Sequence of TrkA(h) (P04629 33-796): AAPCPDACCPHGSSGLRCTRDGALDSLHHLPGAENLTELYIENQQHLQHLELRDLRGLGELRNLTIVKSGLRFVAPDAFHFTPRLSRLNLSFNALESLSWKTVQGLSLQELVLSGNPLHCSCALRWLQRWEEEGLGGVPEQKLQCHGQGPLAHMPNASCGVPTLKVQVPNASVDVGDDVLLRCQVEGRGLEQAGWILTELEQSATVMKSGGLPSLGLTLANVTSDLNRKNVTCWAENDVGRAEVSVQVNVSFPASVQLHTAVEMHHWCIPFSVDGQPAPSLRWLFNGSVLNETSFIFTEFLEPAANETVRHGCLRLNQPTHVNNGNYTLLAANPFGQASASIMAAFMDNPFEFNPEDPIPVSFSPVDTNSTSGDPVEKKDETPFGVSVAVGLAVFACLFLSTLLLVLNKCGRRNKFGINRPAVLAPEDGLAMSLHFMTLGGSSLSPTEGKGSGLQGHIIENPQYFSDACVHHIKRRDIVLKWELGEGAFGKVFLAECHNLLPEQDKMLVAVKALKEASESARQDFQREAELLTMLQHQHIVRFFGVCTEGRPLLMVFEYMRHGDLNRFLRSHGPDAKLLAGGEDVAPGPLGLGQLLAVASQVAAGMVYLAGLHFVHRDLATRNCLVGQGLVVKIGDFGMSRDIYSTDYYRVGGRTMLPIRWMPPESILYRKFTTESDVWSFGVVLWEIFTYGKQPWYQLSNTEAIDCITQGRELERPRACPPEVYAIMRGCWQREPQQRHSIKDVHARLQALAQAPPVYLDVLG
Sequence of SIK(h) (P57059 whole entry): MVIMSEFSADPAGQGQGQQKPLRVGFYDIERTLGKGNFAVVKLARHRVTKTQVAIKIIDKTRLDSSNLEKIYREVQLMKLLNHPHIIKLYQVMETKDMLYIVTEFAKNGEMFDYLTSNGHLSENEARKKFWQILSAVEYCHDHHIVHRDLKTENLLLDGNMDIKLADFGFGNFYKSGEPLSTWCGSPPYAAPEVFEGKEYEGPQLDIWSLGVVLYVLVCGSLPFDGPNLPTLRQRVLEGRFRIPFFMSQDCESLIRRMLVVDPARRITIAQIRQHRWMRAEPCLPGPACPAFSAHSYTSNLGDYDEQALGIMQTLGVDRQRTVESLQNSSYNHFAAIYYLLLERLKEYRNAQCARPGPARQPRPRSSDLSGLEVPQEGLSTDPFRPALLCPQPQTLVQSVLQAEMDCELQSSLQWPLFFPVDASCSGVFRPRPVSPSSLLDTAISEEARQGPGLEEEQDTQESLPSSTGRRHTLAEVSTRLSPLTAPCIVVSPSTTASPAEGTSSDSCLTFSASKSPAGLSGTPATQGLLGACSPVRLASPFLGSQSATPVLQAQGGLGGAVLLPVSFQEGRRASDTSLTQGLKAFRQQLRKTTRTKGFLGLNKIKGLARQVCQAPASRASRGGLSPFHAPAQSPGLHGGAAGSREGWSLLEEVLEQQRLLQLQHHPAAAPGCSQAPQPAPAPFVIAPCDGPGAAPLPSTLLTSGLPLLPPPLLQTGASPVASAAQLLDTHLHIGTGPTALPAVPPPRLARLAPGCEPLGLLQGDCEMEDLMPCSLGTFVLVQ
Sequence of Ret(V804M)(h) (P07949 29-1114 V804M): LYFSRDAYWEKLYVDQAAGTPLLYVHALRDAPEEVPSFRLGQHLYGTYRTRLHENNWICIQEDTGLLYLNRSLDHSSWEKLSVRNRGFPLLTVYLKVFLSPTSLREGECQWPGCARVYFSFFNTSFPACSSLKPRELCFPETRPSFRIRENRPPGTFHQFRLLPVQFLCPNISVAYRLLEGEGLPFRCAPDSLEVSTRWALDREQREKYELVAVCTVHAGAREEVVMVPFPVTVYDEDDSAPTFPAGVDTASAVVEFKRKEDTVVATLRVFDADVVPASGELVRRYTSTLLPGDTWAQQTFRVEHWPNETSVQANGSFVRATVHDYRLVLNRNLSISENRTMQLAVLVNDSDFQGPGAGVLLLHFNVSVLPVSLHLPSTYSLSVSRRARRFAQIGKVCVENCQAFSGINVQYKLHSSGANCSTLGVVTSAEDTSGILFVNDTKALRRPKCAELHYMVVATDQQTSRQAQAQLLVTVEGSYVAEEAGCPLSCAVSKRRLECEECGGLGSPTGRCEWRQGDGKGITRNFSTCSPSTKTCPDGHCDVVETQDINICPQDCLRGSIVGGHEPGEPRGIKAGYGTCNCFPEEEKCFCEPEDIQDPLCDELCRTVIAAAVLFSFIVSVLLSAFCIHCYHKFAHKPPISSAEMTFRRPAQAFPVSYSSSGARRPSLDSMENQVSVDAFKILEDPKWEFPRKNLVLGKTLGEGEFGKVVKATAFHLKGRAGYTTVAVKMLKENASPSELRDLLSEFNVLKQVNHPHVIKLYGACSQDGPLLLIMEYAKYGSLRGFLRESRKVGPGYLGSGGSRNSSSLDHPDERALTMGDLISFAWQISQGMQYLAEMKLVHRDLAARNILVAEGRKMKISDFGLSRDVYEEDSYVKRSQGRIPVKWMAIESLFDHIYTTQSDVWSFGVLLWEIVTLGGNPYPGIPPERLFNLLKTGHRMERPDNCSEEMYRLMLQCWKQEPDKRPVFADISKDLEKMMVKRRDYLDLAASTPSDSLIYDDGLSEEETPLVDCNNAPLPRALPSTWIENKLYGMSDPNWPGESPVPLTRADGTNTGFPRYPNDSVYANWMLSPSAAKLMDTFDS

## CC(C)CCC(=O)[C@]1(O)C(O)=C(C(=O)C(C)C)C(=O)[C@H]1CCC(C)C [TH2, tetrahydroiso-cohumulone]
[1]; 1 μg/ml
  kinase inhibition: 107% of control
[1]; 5 μg/ml
  kinase inhibition: 89% of control
[1]; 25 μg/ml
  kinase inhibition: 87% of control
[1]; 50 μg/ml
  kinase inhibition: 46% of control
[1]; 100 μg/ml
  kinase inhibition: 45% of control
[2]; 1 μg/ml
  kinase inhibition: 107% of control
[2]; 5 μg/ml
  kinase inhibition: 104% of control
[2]; 25 μg/ml
  kinase inhibition: 110% of control
[2]; 50 μg/ml
  kinase inhibition: 94% of control
[2]; 100 μg/ml
  kinase inhibition: 88% of control
[3]; 1 μg/ml
  kinase inhibition: 110% of control
[3]; 5 μg/ml
  kinase inhibition: 111% of control
[3]; 25 μg/ml
  kinase inhibition: 99% of control
[3]; 50 μg/ml
  kinase inhibition: 31% of control
[3]; 100 μg/ml
  kinase inhibition: 25% of control
[4]; 1 μg/ml
  kinase inhibition: 102% of control
[4]; 5 μg/ml
  kinase inhibition: 99% of control
[4]; 25 μg/ml
  kinase inhibition: 104% of control
[4]; 50 μg/ml
  kinase inhibition: 89% of control
[4]; 100 μg/ml
  kinase inhibition: 62% of control
[5]; 1 μg/ml
  kinase inhibition: 103% of control
[5]; 5 μg/ml
  kinase inhibition: 99% of control
[5]; 25 μg/ml
  kinase inhibition: 98% of control
[5]; 50 μg/ml
  kinase inhibition: 98% of control
[5]; 100 μg/ml
  kinase inhibition: 71% of control
[6]; 1 μg/ml
  kinase inhibition: 108% of control
[6]; 5 μg/ml
  kinase inhibition: 108% of control
[6]; 25 μg/ml
  kinase inhibition: 108% of control
[6]; 50 μg/ml
  kinase inhibition: 92% of control
[6]; 100 μg/ml
  kinase inhibition: 69% of control
[7]; 1 μg/ml
  kinase inhibition: 95% of control
[7]; 5 μg/ml
  kinase inhibition: 96% of control
[7]; 25 μg/ml
  kinase inhibition: 112% of control
[7]; 50 μg/ml
  kinase inhibition: 106% of control
[7]; 100 μg/ml
  kinase inhibition: 86% of control
[8]; 1 μg/ml
  kinase inhibition: 118% of control
[8]; 5 μg/ml
  kinase inhibition: 99% of control
[8]; 25 μg/ml
  kinase inhibition: 112% of control
[8]; 50 μg/ml
  kinase inhibition: 101% of control
[8]; 100 μg/ml
  kinase inhibition: 100% of control
[9]; 1 μg/ml
  kinase inhibition: 109% of control
[9]; 5 μg/ml
  kinase inhibition: 99% of control
[9]; 25 μg/ml
  kinase inhibition: 114% of control
[9]; 50 μg/ml
  kinase inhibition: 122% of control
[9]; 100 μg/ml
  kinase inhibition: 106% of control
